Like-named read-outs stand apart in the source and are kept apart here.
What was measured:
SARS-CoV-2 [1] = assay type: cell-based; settings: Calu-3 cells; for Suppression of viral infection relative to DMSO control, initial screen: 0.5 μM for 1, 1 μM for the others, 48 h, Figure 3; for Suppression of viral infection, follow-up experiment: Figure 4
[2] = tested on: primary human airway cells; settings: air-liquid interface, 48 h, Figure 5B
SARS-CoV-2 [3] = settings: air-liquid interface culture, test concentration 10 μM, 48 h
Plasmodium falciparum = settings: human malarial parasite Plasmodium falciparum; cited from earlier work
HIV-1 strain UG/92/029 = settings: read-out: IC50 against HIV-1 strain UG/92/029; cited from earlier work
[4] = cited from earlier work
HIV-1 strain 96USHIPS7 = settings: read-out: IC50 against HIV-1 strain 96USHIPS7; cited from earlier work
[5] = tested on: influenza A virus subtype H1N1; settings: cited from earlier work
SARS-CoV-2 [6] = settings: cited from earlier work

Molecule: CC(=O)C[C@]1(O)c2ccccc2-[n+]2ccc3c([nH]c4ccccc43)c21.O=C([O-])C(F)(F)F [Compound 1, homofascaplysin A]
- Suppression of viral infection relative to DMSO control, initial screen (SARS-CoV-2 [1]): significantly suppressed viral infection
- Suppression of viral infection, follow-up experiment (SARS-CoV-2 [1]; 2.8 μM): significant suppression of viral infection
- Effect on adenoviral transduction (toxicity control) [2]: did not affect adenoviral transduction

Molecule: C[C@H]1CC[C@H]2C(C)(C)CCC[C@]23Oc2ccc(O)cc2C[C@]13C [Compound 2, (+)-aureol]
- Suppression of viral infection relative to DMSO control, initial screen (SARS-CoV-2 [1]): significantly suppressed viral infection
- Suppression of viral infection, follow-up experiment (SARS-CoV-2 [1]; 10 μM): significant suppression of viral infection
- Effect on SARS-CoV-2 replication in primary human airway cells (SARS-CoV-2 [3]): ineffective

Molecule: CC1=C2Cc3cc(ccc3O)C(=O)O[C@H](C(C)(C)Br)CC[C@](C)(O)[C@H](Br)CC[C@]2(C)[C@@H](Br)CC1 [Compound 3, bromophycolide A]
- Suppression of viral infection relative to DMSO control, initial screen (SARS-CoV-2 [1]): significantly suppressed viral infection
- Suppression of viral infection, follow-up experiment (SARS-CoV-2 [1]; 10 μM): significant suppression of viral infection
- Effect on SARS-CoV-2 replication in primary human airway cells (SARS-CoV-2 [3]): ineffective
- Blood stage antimalarial activity (Plasmodium falciparum): sub-micromolar
- IC50 (HIV-1 strain UG/92/029): 9.1 µM
- Toxicity in vivo ([4]; malaria mouse model): low toxicity
- Bioavailability in vivo ([4]; mouse, in vivo): reasonable bioavailability
- In vivo half-life ([4]; mouse, in vivo): short in vivo half-life
- Liver metabolism ([4]; mouse, in vivo): rapid liver metabolism
- IC50 (HIV-1 strain 96USHIPS7): 9.8 µM

Molecule: CC(C)=CCC[C@@H](C)[C@H]1CC[C@@]2(C(=O)O)C3=C(CC[C@]12C)[C@@]1(C)CC[C@H](O[C@@H]2OC[C@H](O)[C@H](O[C@@H]4OC[C@H](O)[C@H](O[C@@H]5O[C@H](CO)[C@H](O)[C@H](O)[C@H]5O)[C@H]4O)[C@H]2O[C@@H]2O[C@H](CO)[C@H](O)[C@H](O)[C@H]2O)C(C)(C)C1CC3 (stereo partly shown) [Compound 13, formoside]
- Reduction of SARS-CoV-2 infection in a subsequent experiment (SARS-CoV-2 [1]; data not shown): not replicated

Molecule: C[C@H]1CC[C@H]2C(C)(C)[C@@H](O)CC[C@]23Oc2c(c(O)cc4c2CNC4=O)C[C@]13C [Compound 16, stachyflin]
- Activity against influenza A virus subtype H1N1 [5]: nanomolar activity

Molecule: plitidepsin [Compound 4]
- Potency against SARS-CoV-2 relative to remdesivir (SARS-CoV-2 [6]): more than 20 times

Source: paper PMC8936055 (Journal of natural products, 2022)
